{"source": "patent US20080318847A1", "about": "“Use of Antagonist of Oxytocin and/or Vasopressin in Assisted Reproduction” (Ferring International Center SA, priority 2005, published 2008)", "key": {"[1]": {"test_system": "uterine contractile activity", "settings": "non pregnant humans, vasopressin administrations VAS-1 to VAS-3; Bossmar et al.; cited from earlier work"}, "[2]": {"molecular_target": "vasopressin V1a receptors (Homo sapiens, UniProt P37288)", "sequence (P37288 whole entry)": "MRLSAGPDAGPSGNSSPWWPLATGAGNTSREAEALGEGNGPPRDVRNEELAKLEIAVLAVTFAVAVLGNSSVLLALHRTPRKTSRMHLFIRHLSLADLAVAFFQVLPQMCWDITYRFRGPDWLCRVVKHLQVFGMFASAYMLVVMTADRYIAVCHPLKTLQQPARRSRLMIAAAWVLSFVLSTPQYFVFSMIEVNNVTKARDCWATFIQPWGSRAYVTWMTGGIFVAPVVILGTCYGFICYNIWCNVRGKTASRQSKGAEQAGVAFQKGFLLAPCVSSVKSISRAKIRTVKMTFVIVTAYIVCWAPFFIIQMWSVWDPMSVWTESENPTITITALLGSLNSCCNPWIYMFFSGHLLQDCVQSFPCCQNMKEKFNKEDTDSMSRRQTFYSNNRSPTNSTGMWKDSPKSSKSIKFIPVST", "settings": "V1a versus oxytocin receptors; cited from earlier work"}, "[3]": {"settings": "in vivo; cited from earlier work"}, "[4]": {"test_system": "human pregnant myometrium", "settings": "cited from earlier work"}, "[5]": {"settings": "after the initiation of the intravenous infusion; cited from earlier work"}, "[6]": {"test_system": "uterine receptivity at the embryo transfer", "experiment": "Clinical application of atosiban at embryo transfer (IVF-ET): outcome and tolerability", "type": "in vivo, human", "from_the_text": "Clinical application of medicament containing atosiban—an antagonist of oxytocin and vasopressin for increasing the uterine receptivity at the embryo transfer in the course of assisted reproduction procedure of IVF-ET (in vitro fertilization-embryo transfer).\nIn the 8th cycle of the treatment, a decision on application of a medicament containing atosiban (antagonist of oxytocin and vasopressin) was drawn, aiming to improve the uterine receptivity. The medicament was given in intravenous infusion, which started 60 minutes before the transfer and was continued throughout 2 hours after the transfer. 10 minutes before the start of administration (70 minutes before the transfer) transvaginal sonography with 5-minute digital registration of uterine contractions was performed. […] Immediately after, a continuous infusion of 18 mg/hour of atosiban was connected using the infusion pump and was continued throughout the next 60 minutes. 45 minutes after the initiation of the infusion, transvaginal sonography with digital image registration was repeated. Between 55th and 60th minute of infusion, a sonography-guided transfer of 2 embryos was performed. After the transfer, the dosage of atosiban was changed to 6 mg/hour. Infusion was finished 2 hours after the transfer, total dose administered was 37.5 mg.\nThe mode of application of atosiban described above provided the maximal effect at the time of embryo transfer (it was proven that stable concentrations of atosiban are reached about an hour after the initiation of the infusion). Patient stayed in horizontal position until an hour after termination of the infusion and limited their activities on that day. At the control visit done 2 weeks after the embryo transfer, a pregnancy test was done with positive result."}, "[7]": {"settings": "clinical use in preterm labor; cited from earlier work"}, "[8]": {"test_system": "human sperm", "experiment": "Human Sperm Motility Bioassay (embryotoxicity)", "type": "cell-based", "experimental": "In order to verify the embryotoxicity of atosiban a study on influence of atosiban on parameters of human sperm motility was performed (Human Sperm Motility Bioassay). The technique used in the study is a standard in the quality control and evaluation of embryotoxicity in IVF laboratories.\nThe study was performed on samples of fresh human sperm taken from 15 healthy donors with perfect seminologic parameters. After selecting the alive and motile population (swim-up ascending migration method), sperm samples were transferred to the sterile Eppendorf tubes containing Human Sperm Preparation Medium alone or with atosiban in concentrations of 300 nM, 1000 nM, 3000 nM, last concentrations being 10-fold to maximal concentrations achieved in humans in the course of treatment of preterm labor. Sperm motility assessment was performed with computer assisted sperm analyzer Hobson Sperm Tracker in the 1st, 8th and 24th hour of exposition to atosiban.\nFollowing parameters were analyzed:\na) percentage of actively motile sperm cells (Active %); b) percentage of motile sperm cells (Motility %); c) percentage of hyperactively motile sperm cells (Hyper %), d) VSL—straight line velocity, e) VCL—total velocity, f) ALH—amplitude of lateral head displacements. Results are presented at FIG. 2 and FIG. 3. In the statistic analysis, analysis of variance (ANOVA) was applied."}, "[9]": {"test_system": "uterine contractile activity", "experiment": "Transvaginal sonography of uterine contractile activity before and during atosiban infusion at embryo transfer (IVF-ET patient)", "type": "in vivo, human", "experimental": "FIG. 1 presents a graph on uterine contractile activity assessed by transvaginal sonography in patient which case is described in example 1. Uterine contractions on graph B and C are marked with light color for better visualization. In the method of digital image analysis, due to the requirement of a high picture quality, a period of 4 minutes out of total 5 minutes recorded was selected for analysis. • A) Schematic presentation of a principle of non invasive assessment of uterine contractility (done similarly to Fanchin et al. [Hum. Reprod. 1998; 13(7):1968-74]) Description: U—uterus, En—endometrium (the inner layer of the uterus)—during the uterine contractions, changes in texture and contour of endometrium are observed, My—myometrium (the middle layer of uterus, built of smooth muscle tissue), T—testing segment, where movements of contour of endometrium representing the uterine contractile activity are assessed • B) Graph presenting uterine contractile activity before the application of oxytocin antagonist atosiban. Contractile hyperactivity is seen. Legend: ↑—uterine contraction, 1 min—segment representing 1 min of digital recording, T—testing segment, where movements of contour of endometrium reflecting the uterine contractile activity are assessed; C) Graph presenting uterine contractile activity in the time of maximal effect of oxytocin antagonist atosiban. […] Legend: ↑—uterine contraction, 1 min—segment representing 1 min of digital recording, T—testing segment, where movements of contour of endometrium reflecting the uterine contractile activity are assessed\nIn the 8th cycle of the treatment, a decision on application of a medicament containing atosiban (antagonist of oxytocin and vasopressin) was drawn, aiming to improve the uterine receptivity. The medicament was given in intravenous infusion, which started 60 minutes before the transfer and was continued throughout 2 hours after the transfer. […]"}, "[10]": {"settings": "atosiban 300 nM, 1000 nM, 3000 nM, 1st, 8th and 24th hour, ANOVA"}}, "note": "Entries after “also recorded” stand apart in the source; their conditions may differ. Bridge positions count the residues as written; N and C are the ends. Square brackets hold non-standard residues; d marks the D form. Peptide text beside a SMILES is read from it. Orn = NCCC[C@H](N)C(=O)O; Mpa = O=C(O)CCS"}
{"molecule": "COc1ccc(S(=O)(=O)N2c3ccc(Cl)cc3[C@](O)(c3ccccc3Cl)[C@@H]2C(=O)N2CCC[C@H]2C(N)=O)cc1OC", "note": "[relcovaptan]", "values": [{"measurement": "uterine contractility (area under curve of intrauterine pressure) relative to placebo", "setting": "[1]", "value": "decreasing the uterine contractility"}, {"measurement": "receptor affinity profile", "setting": "[2]", "value": "greater affinity towards vasopressin V1a receptors as compared to oxytocin receptors"}]}
{"molecule": "barusiban", "values": [{"measurement": "estimated half time of a single dose", "setting": "[3]", "value": 7, "unit": "h"}, {"measurement": "inhibition of contractile activity", "setting": "[4]; in the range of oxytocin concentrations that occur in humans", "value": "total inhibition"}, {"measurement": "potency as inhibitor of uterine contractions compared to atosiban", "setting": "[4]; in vitro", "value": "more potent"}, {"measurement": "myometrium contractile activity after administration", "setting": "[4]; oxytocin stimulated, in vitro, Pierzynski et al.", "value": "significantly reduced"}]}
{"molecule": "CCOc1ccc(C[C@H]2NC(=O)CCSSC[C@@H](C(=O)N3CCC[C@H]3C(=O)N[C@@H](CCCN)C(=O)NCC(N)=O)NC(=O)[C@H](CC(N)=O)NC(=O)[C@H]([C@@H](C)O)NC(=O)[C@H]([C@@H](C)CC)NC2=O)cc1", "note": "[atosiban] ([Mpa][dY](Et)ITNCP[Orn]G-NH2; disulfide 1-6)", "values": [{"measurement": "time until stable concentrations are reached", "setting": "[5]", "value": "about an hour"}, {"measurement": "pregnancy test", "setting": "[6]; 2 weeks after the embryo transfer, atosiban 6.75 mg bolus, 18 mg/hour then 6 mg/hour i.v.", "value": "positive"}, {"measurement": "transvaginal sonography finding", "setting": "[6]; 4 weeks after the transfer", "value": "intrauterine, normal twin pregnancy"}, {"measurement": "adverse reactions", "setting": "[6]; bolus dose of 6.75 mg intravenously, 60 minutes before the transfer", "value": "no adverse reactions"}, {"measurement": "side effects", "setting": "[7]", "value": "minimal side effects"}, {"measurement": "percentages of actively motile, motile and hyperactively motile sperm (Active %, Motility %, Hyper %) versus control", "setting": "[8]; [10]", "value": "No significant differences"}, {"measurement": "sperm movement parameters (VCL, VSL, ALH) versus control", "setting": "[8]; [10]", "value": "no significant differences"}, {"measurement": "parameters of human sperm motility (Active %, Motility %, Hyper %, VSL, VCL, ALH) versus control samples", "setting": "[8]; atosiban 300 nM, 1000 nM, 3000 nM, in vitro, ANOVA", "value": "does not inhibit; also recorded: No significant differences"}, {"measurement": "embryotoxicity (concluded from sperm motility bioassay)", "setting": "[8]; atosiban up to 3000 nM", "value": "lacks embryotoxic potential; also recorded: lack of embryotoxicity"}, {"measurement": "uterine contractions, method II (digital analysis of displacements of endometrial contour)", "setting": "[9]; after the administration of atosiban i.v. (stable blood levels), 11 contractions/4 min before administration", "value": 7, "unit": "contractions/4 min"}, {"measurement": "uterine contractions, method I (inspection and manual registration of contractions on an accelerated film sequence)", "setting": "[9]; after the administration of atosiban i.v. (stable blood levels, 45 minutes after initiation of infusion), 15 contractions/5 min before administration", "value": 8, "unit": "contractions/5 min"}, {"measurement": "uterine contractile activity (change versus before atosiban)", "setting": "[9]; time of maximal effect / stable blood levels of atosiban", "value": "notably decreased; also recorded: significant reduction"}]}
